# Reference: paper PMC7943729, “Cell-Free DNA Promotes Thrombin Autolysis and Generation of Thrombin-Derived C-Terminal Fragments” (Frontiers in Immunology, 2021)
# How the values were obtained:
# human thrombin [1] = target: T1, human thrombin (Homo sapiens, UniProt P00734); experiment: Thrombin autolysis determination by western blot; format: biochemical
# T1 construct: purchased Innovative Research USA
# Procedure: 10 µl of citrate plasma was added to increasing concentration of DNA (6.25, 12.5, 25, and 50 µg/ml) resuspended in 10 mM Tris, pH 7.4 (total volume of 20 µl). Following an hour pre-incubation at 37 °C, 2.5 mM CaCl2 was added to samples and further incubated for 1 hour at 37 °C. After incubation, samples were boiled for 15 min with sample buffer and were analyzed by SDS-PAGE using Novex 10–20% Tris Tricine precast gels. Post electrophoresis, the gel was transferred to a PVDF membrane and blocked with 5% milk for an hour before western blotting. For detection of C-terminal thrombin fragments, overnight incubation of the blots was performed with polyclonal antibodies recognizing the thrombin C-terminal peptide VFR17 ([…]) in 1:5,000 dilution at 4 °C. […]
# DNA dependent thrombin autolysis was analyzed by incubating 0.4 µg of human thrombin (Innovative Research USA) in the presence or absence of equal weight ratio (1:1) of DNA in a total volume of 10 µl for different time points (1, 2, 4, and 6 h). […] Thrombin autolysis inhibition was analyzed using 0.4 µg of heat inactivated thrombin (preboiled for 10 mins at 95 °C) incubated with equal weight ratio (1:1) of DNA for extended time of 6 h. […] In all cases, after the incubation at 37 °C, samples were boiled for 10 min in sample buffer and analyzed by western blotting as mentioned above.
# genomic DNA = experiment: DNA gel shift assay (agarose gel mobility shift); format: binding, human; details: 200 ng gDNA (20 µg/ml), 10-200 ng protein or peptide, 10 mM Tris pH 7.4, 1 h 37 °C, 0.8% agarose gel, SYBR Safe; n = 3
# Procedure: The DNA used for agarose gel and western blot analysis was extracted from cultured human keratinocytes (HaCaT) cells using E.Z.N.A. DNA/RNA Isolation kit (Omega Bio-Tek USA) or E. coli DH5α plasmid DNA (pUC19) using Qiagen plasmid purification kits (Qiagen USA) according to the manufacturer’s protocol.
# Following this, the samples were analyzed by gel electrophoresis on a 0.8% agarose (w/v) gel in 1X Tris acetate-EDTA (TAE) buffer with SYBR Safe and visualized with the ChemiDoc Imaging System (Bio-Rad, USA).
# [2] = target: T2, human neutrophil elastase (Homo sapiens, UniProt P08246); experiment: Protease protection assay; format: in vitro ADME; details: NE 1:30, 37 °C, western blot
# T2 sequence (P08246 30-267): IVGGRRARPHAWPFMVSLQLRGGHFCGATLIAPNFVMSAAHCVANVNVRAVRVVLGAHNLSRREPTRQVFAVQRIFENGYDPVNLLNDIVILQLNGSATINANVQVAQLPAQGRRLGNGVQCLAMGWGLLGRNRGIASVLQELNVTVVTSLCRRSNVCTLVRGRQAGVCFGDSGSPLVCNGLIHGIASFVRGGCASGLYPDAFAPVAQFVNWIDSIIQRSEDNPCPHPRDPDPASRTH
# Procedure: Thrombin or GKY25 (0.4 µg) was incubated with DNA (w/w ratio = 1:1) in 10 mM Tris, pH 7.4 for 4 h, followed by addition of neutrophil elastase at enzyme: substrate ratio of 1:30 and incubated for various time points (1, 2, and 3 h). Post incubation, samples were boiled for 3 min to inhibit the reaction and further analyzed by Tricine SDS-PAGE as described above.
# human thrombin [3] = target: T1, human thrombin; details: thrombin autolysis without DNA; cited from earlier work
# Description: Previous studies have shown that the rate of autolysis increases with concentration of thrombin, pH, temperature and concentration of monovalent cations ([31], [32]).
molecule,measurement,setting,value
O=S(=O)(F)Cc1ccccc1 [PMSF],inhibition of DNA-induced TCP formation,"human thrombin [1]; 0.4 µg thrombin, DNA 1:1 w/w, 4 h 37 °C, PMSF 1 mM, protease inhibitor cocktail 1X",abrogated the formation of TCPs
heparin,induction of thrombin fragmentation / TCP formation,"human thrombin [1]; 0.4 µg human thrombin, 37 °C, western blot with anti-VFR17, DNA 1:1 for 1-6 h, NETs 4 h, heparin 1:0.5 and 1:1 for 1 h",did not induce thrombin fragmentation or TCP formation
thrombin,amount giving complete retardation of DNA,genomic DNA,≥ 160 ng
same,amount giving reduced DNA migration,genomic DNA,40 ng
same,thrombin fragments after neutrophil elastase in the presence of DNA,"[2]; 0.4 µg thrombin with gDNA 1:1 w/w, increasing incubation time 60-180 min",a higher signal intensity of the 3 kDa TCP
same,cleavage of thrombin by neutrophil elastase without DNA,"[2]; 0.4 µg thrombin, control lanes without DNA, 60-180 min",cleaved thrombin to release multiple TCPs
same,time for complete autolytic conversion to γ-thrombin,human thrombin [3],~144 h
